Consider two compounds from patent publication US20050026959A1, “Ethanol solvate of (-)-cis-2-(2-chloropheny)-5,7-dihydroxy-8-[4R-(3S-hydroxy-1-methyl)piperidinyl]-4H-1benzopyran-4-one” (Aventis Pharma Deutschland GmbH, priority 2000, published 2005).

The test system of series [1] is cyclin dependent kinases (CDKs) including CDK1, CDK2, CDK4, CDK6 and CDK7. The note with it: cdk1/cyclin B; cdk2/cyclin A; cdk2/cyclin E; cdk4/cyclinD; cdk6/cyclin D; cdk7/cyclin H; Int. J. Oncology 9: 1143-1168 (1996); cited from earlier work.
Series [2] can be described thus: Hygroscopicity of the solid form. In kind it is physicochemical. The text has this:
Form II is hygroscopic. It can be used in water free form or in a form with a certain water content. The use in a form, which is essentially free from water is preferred.

For `CN1CC[C@H](c2c(O)cc(O)c3c(=O)cc(-c4ccccc4Cl)oc23)[C@H](O)C1` [Flavopiridol, (−)-cis-2-(2-chlorophenyl)-5,7-dihydroxy-8-[4R-(3S-hydroxyl-1-methyl)piperidinyl]-4H-1-benzopyran-4-one], the “inhibition of cyclin dependent kinases” value in series [1] is “strong inhibitor”. Turning to `CN1CC[C@H](c2c(O)cc(O)c3c(=O)cc(-c4ccccc4Cl)oc23)[C@H](O)C1.Cl` (relative stereo) [Form II, (−)-cis-2-(2-chlorophenyl)-5,7-dihydroxy-8-[4R-(3S-hydroxy-1-methyl)piperidinyl]-4H-1-benzopyran-4-one hydrochloride], the hygroscopicity entry in series [2] is given as “hygroscopic”.
